# Measured values reported in patent publication US4465851A, “Guanidinocyclohexanecarboxylic acid derivatives” (Nippon Chemiphar Co., Ltd., priority 1981, dated 1984).
# Several values for one entry are separate records, joined by “and”; a condition that tells them apart may be missing. Identical values can stand only once. Counter-ions that a name gives are not always drawn.
# What was measured:
# [1] = test system: guinea pigs ilea; assay: Anti-histamine action; design: species or system guinea pig; conditions: Cavia porcellus, read-out: Anti-histamine effect inhibition of contraction
# Description: (§1) Anti-acetylcholine and anti-histamine effects of the present compounds were examined using guinea pigs ilea by the usual method.
# [2] = Experimental asthma with passively sensitized guinea pigs; type: in vivo, Hartley male guinea pigs; conditions: 500 mg/kg oral, individual animals (10 animals)
# Experimental: Hartley male guinea pigs each weighing 300 to 350 g were passively sensitized by intravenous injection with rabbit anti-egg albumin serum (0.5 ml/kg). 24 hours after passive sensitization, the guinea pigs were placed in a chamber for an inhalation test and then subjected to continuous spraying for 900 seconds with a mist of a 2% egg albumin solution. A test sample suspended in 5% gum arabic was orally administered 1 hour prior to the antigen challenge. The preconvulsion time was measured.
# [3] = Active systemic anaphylaxis in mice; type: in vivo; conditions: oral, survivors of 5 mice
# Experimental: Egg albumin (10 mg) was mixed with 10 ml Bordetella pertusis vaccine (Takeda Chemical Industries, Ltd.), and the mixture was intraperitoneally injected into mice in an amount of 10 ml/kg. 22 days later, active systemic anaphylaxis was induced by intravenous injection of egg albumin dissolved in saline in an amount of 3 mg/10 ml/kg. A test sample suspended in 5% gum arabic was administered orally to the sensitized mice 1 hour prior to the antigen challenge. 24 hours after the antigen challenge, the number of survived mice was counted.
# [4] = test system: ileum of each sensitized guinea pig; assay: Schultz-Dale reaction; conditions: Cavia porcellus, read-out: Inhibition of contraction (Schultz-Dale reaction)
# Experimental: Male guinea pigs were sensitized with bovine serum albumin by Freund's complete adjuvant method. After a lapse of 10 days, the animals were sensitized once more as described above. After two more weeks, an ileum of each sensitized guinea pig was removed and used for experiment. The ileum was equipped in a magnus tube containing each test sample, and 500 μg of bovine serum albumin was added. The contraction of the ileum was determined.
# [5] = target: Plasma kallikrein (Homo sapiens, UniProt P03952); assay: Inhibition of plasma kallikrein (TAMe hydrolysis); type: biochemical; conditions: TAMe substrate; read-out: Concentration for 50% inhibition (IC50), plasma kallikrein
# Experimental: (§2) Inhibitory effects on the TAMe(N^α -tosyl-L-arginine methyl ester) hydrolytic activity of trypsin, plasmin, plasma kallikrein and thrombin were estimated by Hesterin's method modified by Roberts. Inhibition of the BAEe(N^α -benzoyl-L-arginine ethyl ester) hydrolytic activity of pancreas kallikrein was determined by Hesterin's method after incubation at 37° C. for 30 minutes in a 0.1M borate buffer, pH 8.0. Inhibitory effects on urokinase were determined by the chromotropic acid method after incubation of 60 iu of urokinase with 10 mM AGLMe(acetylglycyl-L-lysine methyl ester) at 37° C. for 30 minutes in a 0.06M phosphate buffer, pH 7.5, containing 0.09M NaCl. Inhibition of chymotrypsin was determined by Hesterin's method after incubation with 15 mM ATE (N^α -acetyl-L-tyrosine ethyl ester) for 30 minutes at 37° C. in a 0.1M borate buffer, pH 8.0.
# [6] = target: Plasmin (Homo sapiens, UniProt P00747); assay: Inhibition of plasmin (TAMe hydrolysis); type: biochemical; conditions: TAMe substrate; read-out: Concentration for 50% inhibition (IC50), plasmin
# Experimental: as §2
# [7] = target: Thrombin (Homo sapiens, UniProt P00734); assay: Inhibition of thrombin (TAMe hydrolysis); type: biochemical; conditions: TAMe substrate; read-out: Concentration for 50% inhibition (IC50), thrombin
# [8] = target: Urokinase (Homo sapiens, UniProt P00749); assay: Inhibition of urokinase (AGLMe, chromotropic acid method); type: biochemical; conditions: 60 iu urokinase, 10 mM AGLMe, 37° C., 30 minutes, pH 7.5; read-out: Concentration for 50% inhibition (IC50), urokinase
# Experimental: as §2
# [9] = target: T1, Trypsin (Bos taurus, UniProt P00760); assay: Inhibition of trypsin (TAMe hydrolysis); type: biochemical; conditions: TAMe substrate; read-out: Concentration for 50% inhibition (IC50), trypsin
# T1 sequence (P00760 24-246): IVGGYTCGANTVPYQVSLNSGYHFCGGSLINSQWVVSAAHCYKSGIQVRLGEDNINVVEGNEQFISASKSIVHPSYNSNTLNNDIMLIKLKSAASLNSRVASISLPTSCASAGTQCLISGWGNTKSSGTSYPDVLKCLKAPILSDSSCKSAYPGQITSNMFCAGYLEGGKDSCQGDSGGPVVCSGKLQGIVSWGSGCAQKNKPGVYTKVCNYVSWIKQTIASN
# Experimental: as §2
# [10] = test system: Mast cells; assay: Effects on histamine release from mast cells induced by compound 48/80; type: cell-based; conditions: Mast cell, read-out: Inhibition of histamine release
# Experimental: After incubation for 20 minutes at 37° C., the suspension was cooled to 4° C., and released histamine was determined as described by Shore et al. All samples examined were recognized to cause no disturbance in the fluorometric assay.
# [11] = Acute toxicity in rats; conditions: rat, in vivo, po
# Experimental: (§3) Normal ICR strain mice (female: 22 g, male: 24 g) or Wister strain rats (female: 90 g, male: 95 g) were used. A test compound was orally given using a gastric sonde. […] The LD50 values were calculated by the Litchfield-Wilcoxon method.
# [12] = target: Pancreas kallikrein (Sus scrofa, UniProt P00752); assay: Inhibition of pancreas kallikrein (BAEe hydrolysis); type: biochemical; conditions: BAEe substrate, 37° C., 30 minutes, pH 8.0; read-out: Concentration for 50% inhibition (IC50), pancreas kallikrein
# Experimental: as §2
# [13] = target: Chymotrypsin (Bos taurus, UniProt P00766); assay: Inhibition of chymotrypsin (ATE hydrolysis); type: biochemical; conditions: 15 mM ATE, 30 minutes, 37° C., pH 8.0; read-out: Concentration for 50% inhibition (IC50), chymotrypsin
# Experimental: as §2
# [14] = Acute toxicity in mice; conditions: mouse, in vivo, po
# Experimental: as §3
# [15] = Passive cutaneous anaphylaxis; type: in vivo; conditions: rat, 125 mg/kg, p.o., 1 hour prior to antigen; dilution ratio of antigen × 32
# Experimental: Diluted anti-egg albumin (rat anti-egg albumin serum) with saline (0.05 ml) was subcutaneously injected into the back of a rat. 48 hours later, egg albumin and Evans' blue dissolved in saline (egg albumin 10 mg and Evans' blue 5 mg/ml) were intravenously injected into the rat in an amount of 2.5 ml/kg. 45 minutes later, the rat was killed, bled and skined, and the permeated area (mm^2) of the dye was measured. Test samples were administered per os 1 hour prior to antigen injection.
# [16] = test system: guinea pigs ilea; assay: Anti-acetylcholine action; design: species or system guinea pig; conditions: Cavia porcellus, read-out: Anti-acetylcholine effect inhibition of contraction
# Description: as §1
# [17] = Experimental asthma with actively sensitized guinea pigs; type: in vivo, Hartley male guinea pigs; conditions: individual animals, hydrochloride
# Experimental: The evaluation was also performed in the experimental asthma with actively sensitized guinea pigs as follows: Hartley male guinea pigs each weighing 300 to 350 g were sensitized (by subcutaneous injection into the inguinal region) with an egg albumin solution (1 mg/ml) emulsified with an equal volume of Freund's complete adjuvant (5 mg/kg of body weight). Ten days later, the emulsion was injected subcutaneously into the axilla. On the 26th day after the first sensitization, the animals were subjected to the experiments which were conducted in the same manner as in the passively sensitized animals.
# [18] = test system: Plasmin; conditions: J. Med. Chem., Vol. 15, No. 3, 247 (1972); cited from earlier work
# Chain of Plasmin (Homo sapiens, UniProt P00747) (P00747 97-580 limits assumed, species assumed): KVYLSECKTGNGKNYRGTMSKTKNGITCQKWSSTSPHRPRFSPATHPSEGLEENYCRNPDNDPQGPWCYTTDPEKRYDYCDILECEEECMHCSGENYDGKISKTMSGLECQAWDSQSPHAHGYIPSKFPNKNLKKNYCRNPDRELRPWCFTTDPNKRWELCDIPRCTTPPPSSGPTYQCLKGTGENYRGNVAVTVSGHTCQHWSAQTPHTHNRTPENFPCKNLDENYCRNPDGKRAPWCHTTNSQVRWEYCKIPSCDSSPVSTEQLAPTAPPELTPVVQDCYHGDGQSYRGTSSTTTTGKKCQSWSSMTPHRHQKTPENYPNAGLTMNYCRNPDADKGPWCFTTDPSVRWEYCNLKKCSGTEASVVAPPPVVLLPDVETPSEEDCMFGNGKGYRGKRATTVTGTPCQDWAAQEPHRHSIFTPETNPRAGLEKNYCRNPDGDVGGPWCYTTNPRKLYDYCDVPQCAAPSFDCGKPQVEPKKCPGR
# Chain of Pancreas kallikrein (P00752 15-246 limits assumed): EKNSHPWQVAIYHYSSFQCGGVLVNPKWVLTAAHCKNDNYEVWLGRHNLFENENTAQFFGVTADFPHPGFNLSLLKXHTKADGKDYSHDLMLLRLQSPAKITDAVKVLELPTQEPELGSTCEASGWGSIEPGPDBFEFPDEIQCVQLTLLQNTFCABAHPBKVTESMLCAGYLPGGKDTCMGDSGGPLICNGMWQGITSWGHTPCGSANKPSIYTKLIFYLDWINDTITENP
# Chain of Plasma kallikrein (P03952 20-390 limits assumed, species assumed): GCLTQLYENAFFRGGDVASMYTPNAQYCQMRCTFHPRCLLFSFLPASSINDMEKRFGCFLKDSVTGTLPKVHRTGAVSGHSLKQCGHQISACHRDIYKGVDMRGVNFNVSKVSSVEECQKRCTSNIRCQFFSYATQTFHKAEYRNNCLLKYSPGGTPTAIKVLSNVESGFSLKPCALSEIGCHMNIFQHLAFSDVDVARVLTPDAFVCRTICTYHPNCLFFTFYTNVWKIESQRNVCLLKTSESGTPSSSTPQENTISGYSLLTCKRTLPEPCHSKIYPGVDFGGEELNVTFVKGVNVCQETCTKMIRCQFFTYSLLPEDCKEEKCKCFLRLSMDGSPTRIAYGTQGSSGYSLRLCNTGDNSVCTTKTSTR
smiles,measurement,setting,value
"CC(C)(C)c1ccc(OC(=O)[C@H]2CC[C@H](CNC(=N)N)CC2)cc1 [Compound 2, 4'-t-Butylphenyl trans-4-guanidinomethylcyclohexanecarboxylate hydrochloride]",inhibition at 25 µg/mL,[1],82%
same,inhibition at 50 µg/mL,[1],96.5%
same,Time to fall down,[2],> 900 s
same,Survival after 24 hr. (5 mice),[3]; 100 mg/kg,2 mice
same,Survival after 24 hr. (5 mice),[3]; 250 mg/kg,2 mice
same,Survival after 24 hr. (5 mice),[3]; 500 mg/kg,4 mice
same,inhibition at 25 µg/mL,[4],64.3%
same,inhibition at 50 µg/mL,[4],100%
same,IC50,[5],150 µM
same,IC50,[6],260 µM
same,IC50,[7],250 µM
same,IC50,[8],36 µM
same,IC50,[9],170 µM
same,inhibition at 10 µg/mL,[10],46.7%
same,LD50 at 168 h,[11],10800 mg/kg
same,LD50,"[11]; 10080 min, hydrochloride","11,000 mg/kg"
same,IC50,[12],62 µM
same,IC50,[13],97 µM
same,LD50 at 168 h,[14],7300 mg/kg
same,LD50,"[14]; 10080 min, hydrochloride",5400 mg/kg
same,Inhibition of passive cutaneous anaphylaxis,[15],91.16%
same,inhibition at 25 µg/mL,[16]; final conc. 25 μg/ml,96%
same,inhibition at 50 µg/mL,[16]; final conc. 50 μg/ml,100%
same,Time to fall down,"[17]; 125 mg/kg oral, 125 mg/kg",699 sec. and > 900 sec. (4×)
same,Time to fall down,"[17]; 250 mg/kg oral, 250 mg/kg",632 sec. and > 900 sec. (4×)
same,Time to fall down,"[17]; 500 mg/kg oral, 500 mg/kg",768 sec. and > 900 sec. (4×)
N=C(N)NCC1CCC(C(=O)O)CC1 (stereo not drawn) [4-guanidinomethylcyclohexanecarboxylic acid],anti-plasmin effects,[18],slight anti-plasmin effects
